Converted amounts (≈) assume the structure as drawn. The source made the active and inactive calls. The rule behind the calls is not given here.
Legend:
Alpha glucosidase [1] = target: T1, Alpha glucosidase (Homo sapiens, UniProt O43451+P10253+P14410+Q2M2H8); experiment: Inhibition of human alpha-glucosidase expressed in Saccharomyces cerevisiae using p-nitrophenyl-alpha-D-glucopyranoside as substrate after 15 mins
[2] = Cytotoxicity against human Chang cells by SRB assay; format: cell-based
A549 [3] = experiment: Cytotoxicity against human A549 cells by SRB assay; format: functional, cell-based
HeLa [4] = experiment: Cytotoxicity against human HeLa cells by SRB assay; format: functional, cell-based
HepG2 [5] = experiment: Cytotoxicity against human HepG2 cells by SRB assay; format: functional, cell-based
HeLa [6] = experiment: Cell cycle arrest in human HeLa cells assessed as accumulation of cells at G0/G1 phase at 1.25 uM after 36 hrs by flow cytometric analysis (reference value: 66.64%); format: functional
HeLa [7] = experiment: Cell cycle arrest in human HeLa cells assessed as accumulation of cells at G2/M phase at 1.25 uM after 36 hrs by flow cytometric analysis (reference value: 9.92%); format: functional
HeLa [8] = experiment: Cell cycle arrest in human HeLa cells assessed as accumulation of cells at S phase at 1.25 uM after 36 hrs by flow cytometric analysis (reference value: 23.44%); format: functional
HeLa [9] = experiment: Cell cycle arrest in human HeLa cells assessed as accumulation of cells at G0/G1 phase at 2.5 uM after 36 hrs by flow cytometric analysis (reference value: 66.64%); format: functional
HeLa [10] = experiment: Cell cycle arrest in human HeLa cells assessed as accumulation of cells at G2/M phase at 2.5 uM after 36 hrs by flow cytometric analysis (reference value: 9.92%); format: functional
HeLa [11] = experiment: Cell cycle arrest in human HeLa cells assessed as accumulation of cells at S phase at 2.5 uM after 36 hrs by flow cytometric analysis (reference value: 23.44%); format: functional
HeLa [12] = experiment: Cell cycle arrest in human HeLa cells assessed as accumulation of cells at G0/G1 phase at 5 uM after 36 hrs by flow cytometric analysis (reference value: 66.64%); format: functional
HeLa [13] = experiment: Cell cycle arrest in human HeLa cells assessed as accumulation of cells at G2/M phase at 5 uM after 36 hrs by flow cytometric analysis (reference value: 9.92%); format: functional
HeLa [14] = experiment: Cell cycle arrest in human HeLa cells assessed as accumulation of cells at S phase at 5 uM after 36 hrs by flow cytometric analysis (reference value: 23.44%); format: functional
HeLa [15] = experiment: Cell cycle arrest in human HeLa cells assessed as accumulation of cells at G0/G1 phase at 10 uM after 36 hrs by flow cytometric analysis (reference value: 66.64%); format: functional
HeLa [16] = experiment: Cell cycle arrest in human HeLa cells assessed as accumulation of cells at G2/M phase at 10 uM after 36 hrs by flow cytometric analysis (reference value: 9.92%); format: functional
HeLa [17] = experiment: Cell cycle arrest in human HeLa cells assessed as accumulation of cells at S phase at 10 uM after 36 hrs by flow cytometric analysis (reference value: 23.44%); format: functional
HeLa [18] = experiment: Cytotoxicity against human HeLa cells after 3 days by hematoxylin-eosin staining-based assay; format: functional; settings: 72 h, read-out: ID50 (the source's name)
Alpha glucosidase [19] = target: T1, Alpha glucosidase; experiment: Non-competitive inhibition of human alpha-glucosidase expressed in Saccharomyces cerevisiae using p-nitrophenyl-alpha-D-glucopyranoside as substrate after 15 mins by Lineweaver-Burk plot analysis
A549 [20] = experiment: Cytotoxicity against human A549 cells at 10 uM by SRB assay; format: functional, cell-based
HepG2 [21] = experiment: Cytotoxicity against human HepG2 cells at 10 uM by SRB assay; format: functional, cell-based
HeLa [22] = experiment: Cytotoxicity against human HeLa cells at 10 uM by SRB assay; format: functional, cell-based
[23] = Cytotoxicity against human Chang cells at 10 uM by SRB assay; format: cell-based

## COc1cc(-c2ccc(O)cc2)c(OC)c(O)c1-c1ccc(OCC=C(C)C)cc1
Alpha glucosidase [1]
  IC50: 17.5 µM
[2]
  CC50: 0.31 µM
A549 [3]
  IC50: 0.31 µM
HeLa [4]
  IC50: 3.18 µM
HepG2 [5]
  IC50: 0.46 µM
HeLa [6]
  Activity: 49.83%
HeLa [7]
  Activity: 10.74%
HeLa [8]
  Activity: 39.42%
HeLa [9]
  Activity: 43.71%
HeLa [10]
  Activity: 10.54%
HeLa [11]
  Activity: 45.75%
HeLa [12]
  Activity: 42.98%
HeLa [13]
  Activity: 4.33%
HeLa [14]
  Activity: 52.69%
HeLa [15]
  Activity: 42.24%
HeLa [16]
  Activity: 0.55%
HeLa [17]
  Activity: 57.2%

## COc1cc(-c2ccc(O)cc2)c(OC)c(O)c1-c1ccc(O)cc1 [TERPHENYLLIN]
Alpha glucosidase [1]
  IC50: 4.79 µM
[2]
  CC50: 6.95 µM
HeLa [18]
  IC50: 10 µg/mL (≈ 29.6 µM)
Alpha glucosidase [19]
  Ki: 1.5 µM
HeLa [4]
  IC50: 15.1 µM
A549 [20]
  Activity: inactive
HepG2 [21]
  Activity: inactive

## COc1cc(-c2ccc(O)cc2)c(OC)c(OCCC(C)C)c1-c1ccc(O)cc1
Alpha glucosidase [1]
  IC50: 8.58 µM
Alpha glucosidase [19]
  Ki: 3.45 µM
A549 [20]
  Activity: inactive
HeLa [22]
  Activity: inactive
HepG2 [21]
  Activity: inactive
[23]
  Activity: Non-Toxic
